# Source: ChEMBL document CHEMBL1201862, “PubChem BioAssay data set” (2004)
# The source made the active and inactive calls.
# What was measured:
# [1] = cytotoxicity in HPDE-C7 cells, cell-based, fluorescence, HTS (AID 430); format: functional; settings: Homo sapiens
# [2] = cytotoxicity in KRAS-transformed pancreatic duct cells, primary screen, cell-based, fluorescence, HTS (AID 431); format: functional; settings: Homo sapiens;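 further: cell line used: HPDE-C7K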
# [3] = target: T1, Microphthalmia-associated transcription factor (Homo sapiens, UniProt O75030); experiment: TRPM1 promoter luciferase signal decrease, dose response, MITF inhibitor project, cell-based, SK-MEL-5, cherry-picked, set 3 (AID 493073); format: functional
# T1 sequence (O75030 whole entry): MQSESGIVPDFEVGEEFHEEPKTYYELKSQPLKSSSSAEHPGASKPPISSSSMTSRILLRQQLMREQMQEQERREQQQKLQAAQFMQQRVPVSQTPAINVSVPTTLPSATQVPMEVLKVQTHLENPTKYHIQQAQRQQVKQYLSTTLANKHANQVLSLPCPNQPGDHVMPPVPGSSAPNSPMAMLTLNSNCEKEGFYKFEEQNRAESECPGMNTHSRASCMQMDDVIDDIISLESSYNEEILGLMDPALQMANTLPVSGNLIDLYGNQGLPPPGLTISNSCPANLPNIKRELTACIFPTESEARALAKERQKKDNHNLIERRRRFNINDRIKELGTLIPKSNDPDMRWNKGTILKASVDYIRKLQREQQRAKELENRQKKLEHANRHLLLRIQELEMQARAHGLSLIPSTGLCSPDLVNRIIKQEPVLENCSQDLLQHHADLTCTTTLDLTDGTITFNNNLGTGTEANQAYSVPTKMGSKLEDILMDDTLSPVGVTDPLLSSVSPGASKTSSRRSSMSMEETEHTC
# [4] = cells; format: functional, cell-based
# [5] = Luminescence-based counterscreen assay for KLF5 inhibitors: dose response cell-based high throughput screening assay to identify cytotoxic compounds using the IEC-6 intestinal epithelial cell line. [Related pubchem assays: 1700 (Primary screen.), 1834 (Confirmation screen.), 1858 (Summary AID.), 1905 (Counterscreen.)]; format: functional
# [6] = cells; format: functional, cell-based; remark: listed apart in the source
# [7] = target: T2, Leucine aminopeptidase (Plasmodium falciparum 3D7, UniProt Q8IL11); experiment: P. falciparum M17LAP inhibitors, primary screen, biochemical, fluorogenic H-Leu-NHMec substrate, 1536-well (AID 1619); format: functional
# T2 sequence (Q8IL11 whole entry): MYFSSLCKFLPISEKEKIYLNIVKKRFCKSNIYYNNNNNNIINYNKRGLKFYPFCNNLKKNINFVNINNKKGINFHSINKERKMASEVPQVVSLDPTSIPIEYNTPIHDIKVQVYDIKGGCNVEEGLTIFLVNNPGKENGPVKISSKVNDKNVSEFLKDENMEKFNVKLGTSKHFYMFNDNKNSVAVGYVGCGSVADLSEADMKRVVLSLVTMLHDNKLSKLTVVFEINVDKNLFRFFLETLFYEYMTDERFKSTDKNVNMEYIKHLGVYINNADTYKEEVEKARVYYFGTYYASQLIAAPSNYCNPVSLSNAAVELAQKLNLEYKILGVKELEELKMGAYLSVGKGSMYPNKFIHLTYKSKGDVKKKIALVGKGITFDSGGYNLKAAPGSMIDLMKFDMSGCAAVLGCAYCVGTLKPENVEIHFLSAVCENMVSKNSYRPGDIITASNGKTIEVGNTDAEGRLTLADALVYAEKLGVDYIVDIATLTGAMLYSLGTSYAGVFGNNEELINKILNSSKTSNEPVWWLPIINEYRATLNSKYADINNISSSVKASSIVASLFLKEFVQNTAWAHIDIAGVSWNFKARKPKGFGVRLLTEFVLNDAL
# [8] = target: Peroxisome proliferator-activated receptor gamma/Nuclear receptor coactivator 1 (Homo sapiens, UniProt P37231); format: functional;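 further: agonist potency as compounds enhance coactivator SRC-1 recruitment to PPARgamma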
# [9] = target: Peroxisome proliferator-activated receptor gamma/Nuclear receptor coactivator 2 (Homo sapiens, UniProt P37231); format: functional;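 further: agonist potency for raising coactivator recruitment to the receptor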
# [10] = target: Peroxisome proliferator-activated receptor gamma/Nuclear receptor coactivator 3 (Homo sapiens, UniProt P37231); format: functional;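 further: agonist potency for raising coactivator recruitment to the receptor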
# [11] = A Cell Based Secondary Assay To Explore Cytotoxicity of Compounds that Sensitize Mycobacterium Tuberculosis to Beta-Lactam Antibiotics.; format: functional
# [12] = HEp-2 cell cytotoxicity, dose response, cytotoxicity control for RSV inhibitor project, HTS (AID 2410); format: functional; settings: human respiratory syncytial virus
# [13] = Luminescence Cell-Based Dose Response HTS to Identify Activators of Luciferase Translation or Activity in H4 […] Cells. [Related pubchem assays: 1829 (Project Summary), 1814 (Primary HTS)]; format: functional
# [14] = Luminescence Cell-Based Dose Response to Identify Activators of 5'UTR Stem-Loop Driven Prion Protein mRNA Translation in H4-C Neuroglioblastoma Cells. [Related pubchem assays: 1829 (Project Summary), 1814 (Primary HTS)]; format: functional
# [15] = cells; format: functional
# [16] = Luminescence Cell-Based Dose Response to Identify Activators of Luciferase Translation or Activity in H4-C Neuroglioblastoma Cells. [Related pubchem assays: 1829 (Project Summary), 1814 (Primary HTS)]; format: functional
# [17] = tested on: H4; experiment: Luminescence Cell-Based Dose Response HTS to Identify Activators of 5'UTR Stem-Loop Driven Prion Protein mRNA Translation in H4 Neuroglioblastoma Cells. [Related pubchem assays: 1829 (Project Summary), 1814 (Primary HTS)]; format: functional; settings: Homo sapiens
# [18] = Luminescence Cell-Based Dose Confirmation to Identify Activators of 5'UTR Stem-Loop Driven Alpha-Synuclein mRNA Translation in H4 Neuroglioblastoma Cells. [Related pubchem assays: 1829 (Project Summary), 1814 (Primary HTS)]; format: functional
# [19] = inhibitors of SNCA 5'UTR-driven reporter translation, confirmation, H4 neuroglioma cells, luminescence (AID 1988); format: functional, cell-based
# [20] = target: Luciferin 4-monooxygenase (Photinus pyralis, UniProt P08659); experiment: firefly luciferase enzyme inhibitors, dose response, biochemical, luminescence (AID 1891)
# [21] = inhibitors of firefly luciferase expression or activity, dose response, H4 neuroglioma cells, luminescence (AID 1990); format: functional, cell-based
# [22] = Luminescence Cell-Based Dose Confirmation HTS to Identify Inhibitors of Platelet Dense Granule Release. [Related pubchem assays: 1663 (Primary HTS), 1678 (Summary of Project)]; format: functional
# [23] = Luminescence Cell-Based Dose Response HTS to Identify Inhibitors of 5'UTR Stem-Loop Driven Prion Protein mRNA Translation in H4 Neuroglioblastoma Cells. [Related pubchem assays: 1827 (Project Summary), 1813 (Primary HTS)]; format: functional
# [24] = cytotoxicity in HEK-293T cells, dose response, cytotoxicity control for TCR NF-kB inhibitor project, luminescence, T-cell screen hits (AID 489026); format: functional, cell-based;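 further: cells exposed to compound about 14 hours before the viability readout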
# [25] = target: T3, Replicative DNA helicase DnaB (Mycobacterium tuberculosis, UniProt P9WMR3); experiment: DnaB intein splicing inhibitors, dose response, biochemical, cell-free fluorescence (AID 449749); format: functional
# T3 sequence (P9WMR3 whole entry): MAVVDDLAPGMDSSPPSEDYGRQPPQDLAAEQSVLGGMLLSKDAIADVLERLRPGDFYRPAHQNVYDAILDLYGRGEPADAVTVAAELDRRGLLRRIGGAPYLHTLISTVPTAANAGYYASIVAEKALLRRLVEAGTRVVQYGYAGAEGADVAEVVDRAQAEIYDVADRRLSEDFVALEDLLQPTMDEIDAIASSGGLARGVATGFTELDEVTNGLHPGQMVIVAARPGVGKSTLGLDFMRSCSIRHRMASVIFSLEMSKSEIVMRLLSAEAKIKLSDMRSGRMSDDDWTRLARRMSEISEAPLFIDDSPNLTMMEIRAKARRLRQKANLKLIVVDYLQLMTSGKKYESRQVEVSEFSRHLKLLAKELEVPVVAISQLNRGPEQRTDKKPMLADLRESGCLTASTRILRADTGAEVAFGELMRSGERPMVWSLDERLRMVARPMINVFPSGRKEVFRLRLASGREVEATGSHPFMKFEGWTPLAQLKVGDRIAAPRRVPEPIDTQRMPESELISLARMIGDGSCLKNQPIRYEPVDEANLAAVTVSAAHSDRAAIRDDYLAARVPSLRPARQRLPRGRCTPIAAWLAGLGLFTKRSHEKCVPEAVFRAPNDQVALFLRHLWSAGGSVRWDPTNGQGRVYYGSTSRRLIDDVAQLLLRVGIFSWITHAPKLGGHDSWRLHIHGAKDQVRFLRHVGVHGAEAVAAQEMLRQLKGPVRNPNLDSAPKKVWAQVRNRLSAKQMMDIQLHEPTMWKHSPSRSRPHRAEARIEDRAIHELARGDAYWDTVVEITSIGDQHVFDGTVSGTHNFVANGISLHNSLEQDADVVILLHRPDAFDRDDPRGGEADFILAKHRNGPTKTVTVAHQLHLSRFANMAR
# [26] = target: T4, Protein RecA (Mycobacterium tuberculosis, UniProt P9WHJ3); experiment: Fluorescence Cell-Free Homogeneous Dose Retest to Identify Inhibitors of RecA-Intein Splicing Activity. [Related pubchem assays (depositor defined):AID2097, AID2223, AID489010, AID492950]; format: functional
# T4 sequence (P9WHJ3 whole entry): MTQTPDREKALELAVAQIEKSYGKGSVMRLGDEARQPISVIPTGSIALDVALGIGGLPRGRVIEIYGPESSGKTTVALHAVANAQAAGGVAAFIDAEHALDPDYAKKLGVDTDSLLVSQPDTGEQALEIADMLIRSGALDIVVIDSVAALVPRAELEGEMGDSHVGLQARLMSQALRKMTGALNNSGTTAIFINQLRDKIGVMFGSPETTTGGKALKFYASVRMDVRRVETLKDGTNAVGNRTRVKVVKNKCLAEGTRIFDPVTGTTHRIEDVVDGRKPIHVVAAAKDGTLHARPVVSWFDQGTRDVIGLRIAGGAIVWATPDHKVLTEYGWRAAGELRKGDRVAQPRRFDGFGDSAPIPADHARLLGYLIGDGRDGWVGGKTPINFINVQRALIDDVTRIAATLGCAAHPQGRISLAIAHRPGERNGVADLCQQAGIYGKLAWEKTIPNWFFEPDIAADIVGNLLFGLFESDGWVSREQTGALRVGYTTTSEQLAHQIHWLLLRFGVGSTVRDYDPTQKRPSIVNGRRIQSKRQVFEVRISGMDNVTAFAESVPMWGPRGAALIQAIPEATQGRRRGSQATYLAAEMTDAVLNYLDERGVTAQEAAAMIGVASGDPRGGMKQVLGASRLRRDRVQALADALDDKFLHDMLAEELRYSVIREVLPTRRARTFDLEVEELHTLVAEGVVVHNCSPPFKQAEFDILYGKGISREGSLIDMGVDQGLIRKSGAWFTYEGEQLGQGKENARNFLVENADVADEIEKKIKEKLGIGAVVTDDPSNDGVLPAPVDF
# Chain of Peroxisome proliferator-activated receptor gamma/Nuclear receptor coactivator 2 (P37231 whole entry): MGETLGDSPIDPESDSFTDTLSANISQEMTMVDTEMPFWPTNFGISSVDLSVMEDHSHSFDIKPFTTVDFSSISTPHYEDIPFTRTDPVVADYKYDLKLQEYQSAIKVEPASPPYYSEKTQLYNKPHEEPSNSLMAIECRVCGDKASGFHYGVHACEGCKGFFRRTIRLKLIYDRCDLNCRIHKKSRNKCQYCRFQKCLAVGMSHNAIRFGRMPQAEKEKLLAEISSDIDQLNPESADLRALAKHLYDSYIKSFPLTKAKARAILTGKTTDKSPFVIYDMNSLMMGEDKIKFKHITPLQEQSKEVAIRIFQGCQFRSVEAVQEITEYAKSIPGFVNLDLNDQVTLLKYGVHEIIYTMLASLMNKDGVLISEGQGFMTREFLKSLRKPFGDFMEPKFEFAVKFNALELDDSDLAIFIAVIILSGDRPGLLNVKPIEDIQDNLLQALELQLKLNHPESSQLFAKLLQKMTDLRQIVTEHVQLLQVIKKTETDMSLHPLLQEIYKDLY
# Chain of Peroxisome proliferator-activated receptor gamma/Nuclear receptor coactivator 2 (Q15596 whole entry, further chain): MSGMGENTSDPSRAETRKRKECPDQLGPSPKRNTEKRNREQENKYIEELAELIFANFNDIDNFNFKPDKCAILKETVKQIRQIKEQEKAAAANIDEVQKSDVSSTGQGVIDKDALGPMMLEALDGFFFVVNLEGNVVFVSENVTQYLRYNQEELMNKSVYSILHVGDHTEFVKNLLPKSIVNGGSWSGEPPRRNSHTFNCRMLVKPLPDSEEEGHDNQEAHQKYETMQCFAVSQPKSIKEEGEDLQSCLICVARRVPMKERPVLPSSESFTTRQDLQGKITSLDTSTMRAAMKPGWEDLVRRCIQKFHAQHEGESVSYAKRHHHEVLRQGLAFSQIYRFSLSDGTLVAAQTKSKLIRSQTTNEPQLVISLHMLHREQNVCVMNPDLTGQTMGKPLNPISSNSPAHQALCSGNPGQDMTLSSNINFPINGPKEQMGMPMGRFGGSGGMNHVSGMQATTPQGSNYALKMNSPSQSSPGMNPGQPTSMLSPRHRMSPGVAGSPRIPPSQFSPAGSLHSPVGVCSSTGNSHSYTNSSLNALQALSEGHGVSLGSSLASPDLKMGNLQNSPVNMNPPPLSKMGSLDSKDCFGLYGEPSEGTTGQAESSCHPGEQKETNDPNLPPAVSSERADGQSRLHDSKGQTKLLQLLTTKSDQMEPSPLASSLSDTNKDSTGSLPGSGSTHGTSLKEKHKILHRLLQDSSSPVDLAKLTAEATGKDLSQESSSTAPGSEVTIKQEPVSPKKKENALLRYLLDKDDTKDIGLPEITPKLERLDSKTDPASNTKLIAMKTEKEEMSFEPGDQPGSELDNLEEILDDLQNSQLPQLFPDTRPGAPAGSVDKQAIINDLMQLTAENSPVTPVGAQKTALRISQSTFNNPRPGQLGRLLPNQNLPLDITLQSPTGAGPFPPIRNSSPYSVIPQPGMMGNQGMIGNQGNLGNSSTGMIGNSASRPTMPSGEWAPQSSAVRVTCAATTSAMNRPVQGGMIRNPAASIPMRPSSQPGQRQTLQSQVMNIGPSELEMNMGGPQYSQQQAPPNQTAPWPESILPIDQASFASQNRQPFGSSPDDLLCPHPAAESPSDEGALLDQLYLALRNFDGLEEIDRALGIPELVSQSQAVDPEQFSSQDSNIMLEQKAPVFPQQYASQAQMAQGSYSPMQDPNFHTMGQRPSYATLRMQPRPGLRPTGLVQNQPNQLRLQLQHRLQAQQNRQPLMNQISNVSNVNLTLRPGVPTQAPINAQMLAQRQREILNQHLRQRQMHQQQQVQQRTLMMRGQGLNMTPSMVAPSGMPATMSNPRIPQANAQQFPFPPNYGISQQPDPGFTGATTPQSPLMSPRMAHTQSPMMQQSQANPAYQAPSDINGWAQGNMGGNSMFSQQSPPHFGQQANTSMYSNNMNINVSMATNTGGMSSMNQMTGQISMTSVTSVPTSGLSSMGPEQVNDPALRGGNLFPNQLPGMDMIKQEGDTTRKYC
# Chain of Peroxisome proliferator-activated receptor gamma/Nuclear receptor coactivator 1 (P37231 whole entry): as the sequence (P37231 whole entry) above
# Chain of Peroxisome proliferator-activated receptor gamma/Nuclear receptor coactivator 1 (Q15788 whole entry, further chain): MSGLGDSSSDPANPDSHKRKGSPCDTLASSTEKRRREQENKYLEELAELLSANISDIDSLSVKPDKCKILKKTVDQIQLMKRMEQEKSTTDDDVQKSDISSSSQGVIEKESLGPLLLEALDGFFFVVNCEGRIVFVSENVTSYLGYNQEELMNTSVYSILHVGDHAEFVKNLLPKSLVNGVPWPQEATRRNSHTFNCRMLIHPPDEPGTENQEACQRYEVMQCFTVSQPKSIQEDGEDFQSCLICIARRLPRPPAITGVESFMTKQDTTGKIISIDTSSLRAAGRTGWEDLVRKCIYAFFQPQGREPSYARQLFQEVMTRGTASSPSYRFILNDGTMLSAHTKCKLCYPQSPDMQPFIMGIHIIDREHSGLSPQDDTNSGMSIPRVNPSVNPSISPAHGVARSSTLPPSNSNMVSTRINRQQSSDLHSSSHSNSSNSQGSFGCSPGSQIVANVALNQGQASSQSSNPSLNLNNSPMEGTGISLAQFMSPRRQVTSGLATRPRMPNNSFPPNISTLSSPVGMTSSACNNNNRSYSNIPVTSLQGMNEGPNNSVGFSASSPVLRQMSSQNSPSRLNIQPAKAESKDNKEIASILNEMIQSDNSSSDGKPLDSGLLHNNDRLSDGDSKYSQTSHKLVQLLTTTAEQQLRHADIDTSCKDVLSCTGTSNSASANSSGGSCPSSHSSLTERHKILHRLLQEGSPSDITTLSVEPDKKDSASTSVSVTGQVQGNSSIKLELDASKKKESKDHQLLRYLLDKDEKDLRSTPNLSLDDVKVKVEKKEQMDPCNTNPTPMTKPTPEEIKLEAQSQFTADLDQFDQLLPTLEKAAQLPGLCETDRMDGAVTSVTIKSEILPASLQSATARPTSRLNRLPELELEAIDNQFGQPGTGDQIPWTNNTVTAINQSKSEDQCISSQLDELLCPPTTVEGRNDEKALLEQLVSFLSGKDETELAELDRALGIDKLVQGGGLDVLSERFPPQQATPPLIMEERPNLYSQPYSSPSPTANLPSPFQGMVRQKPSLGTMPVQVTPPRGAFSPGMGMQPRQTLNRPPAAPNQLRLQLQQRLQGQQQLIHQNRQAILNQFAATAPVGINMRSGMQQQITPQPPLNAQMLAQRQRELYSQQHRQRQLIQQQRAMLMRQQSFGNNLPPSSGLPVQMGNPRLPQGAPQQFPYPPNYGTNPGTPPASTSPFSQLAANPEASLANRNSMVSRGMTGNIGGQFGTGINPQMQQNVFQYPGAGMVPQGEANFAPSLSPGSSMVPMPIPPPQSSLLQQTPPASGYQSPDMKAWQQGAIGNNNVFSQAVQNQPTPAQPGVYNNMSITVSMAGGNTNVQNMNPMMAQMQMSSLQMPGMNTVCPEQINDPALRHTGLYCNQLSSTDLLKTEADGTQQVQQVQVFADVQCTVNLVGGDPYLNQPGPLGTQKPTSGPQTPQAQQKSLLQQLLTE
# Chain of Luciferin 4-monooxygenase (P08659 whole entry): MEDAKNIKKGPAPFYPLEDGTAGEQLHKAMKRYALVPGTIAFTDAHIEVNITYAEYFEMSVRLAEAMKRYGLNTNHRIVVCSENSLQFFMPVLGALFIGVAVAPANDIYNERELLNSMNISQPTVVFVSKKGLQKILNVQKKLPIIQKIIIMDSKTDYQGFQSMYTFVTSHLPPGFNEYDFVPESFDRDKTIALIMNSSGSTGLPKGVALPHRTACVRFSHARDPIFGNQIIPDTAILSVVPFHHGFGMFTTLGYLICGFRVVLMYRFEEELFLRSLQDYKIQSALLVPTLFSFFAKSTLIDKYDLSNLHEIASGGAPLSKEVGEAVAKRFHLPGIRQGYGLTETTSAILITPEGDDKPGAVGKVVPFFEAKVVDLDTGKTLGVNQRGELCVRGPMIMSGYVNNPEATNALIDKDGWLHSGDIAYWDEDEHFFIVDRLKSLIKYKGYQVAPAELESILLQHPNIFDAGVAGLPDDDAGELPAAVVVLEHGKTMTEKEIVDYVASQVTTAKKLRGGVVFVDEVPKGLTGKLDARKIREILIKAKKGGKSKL
compound,measurement,setting,value
N#C/C(=C\c1cccs1)Sc1nc2ccccc2s1,EC50,[1],17.3 µM (active)
same,EC50,[2],16.3 µM (active)
Cn1cccc1-c1cc(C(=O)N/N=C/c2cc(Br)ccc2O)[nH]n1,AC50,[3],5.25 µM (active)
same,EC50,[4],8.69 µM (active)
same,IC50,[5],13.4 µM (not active)
same,EC50,[6],> 350 µM (not active)
CC1=NNC(=O)C1CC(=O)N/N=C/C(C)=C/c1ccccc1 (stereo unspecified),IC50,[7],52.8 µM (active)
Cc1nc(SCC(=O)Nc2ccc(F)cc2)c2oc3ccccc3c2n1,EC50,[8],> 79.4 µM (not active)
same,EC50,[9],9.31 µM (active)
same,EC50,[10],> 79.4 µM (not active)
O=C(NCc1cccs1)c1cc(-c2ccccc2)nc2ccccc12,CC50,[11],> 40 µM (active)
O=C(Nc1ccccc1NC(=O)c1c(F)c(F)c(F)c(F)c1F)c1c(F)c(F)c(F)c(F)c1F,EC50,[1],12.5 µM (active)
same,EC50,[2],17.1 µM (active)
CCOc1ccc(S(=O)(=O)Nc2cc(Sc3nc[nH]n3)c3oc(=O)sc3c2)cc1,EC50,[1],18.6 µM (active)
same,CC50,[12],26.2 µM (active)
same,EC50,[2],13.8 µM (active)
Cc1ccc(NC(=O)ON=C2CCCC2)cc1,EC50,[13],777 nM (active)
same,EC50,[14],1.53 µM (active)
same,IC50,[15],43.2 µM (active)
same,EC50,[16],501 nM (active)
same,EC50,[17],> 120 µM (not active)
same,EC50,[18],547 nM (active)
COc1ccc(NC(=O)CSc2nccc(C)n2)cc1,IC50,[7],20.3 µM (active)
COC(=O)CSc1nc2cc3c(cc2cc1C#N)OCO3,EC50,[13],176 nM (active)
same,EC50,[8],7.89 µM (active)
same,EC50,[9],5.17 µM (active)
same,EC50,[10],7.25 µM (active)
NC(=NOCc1ccc([N+](=O)[O-])cc1)c1ccccn1,EC50,[19],143 nM (active)
same,EC50,[20],9.46 µM (active)
same,EC50,[21],201 nM (active)
same,EC50,[22],7.95 µM (active)
same,IC50,[5],> 39.8 µM (not active)
same,EC50,[23],223 nM (active)
same,IC50,[24],> 80 µM (inactive)
O=C1c2n[nH]c(-c3ccccc3O)c2C(c2ccc(F)cc2)N1Cc1ccco1 (stereo unspecified),EC50,[1],16.9 µM (active)
same,EC50,[2],18.7 µM (active)
COc1ccc(CC(=O)NCc2nnc(SCC(=O)Nc3cccc(F)c3)n2C)cc1,EC50,[8],> 79.4 µM (not active)
same,EC50,[9],> 79.4 µM (not active)
same,EC50,[10],> 79.4 µM (not active)
COc1ccc(S(=O)(=O)Nc2c(F)cccc2F)cc1,EC50,[8],> 79.4 µM (not active)
same,EC50,[9],> 79.4 µM (not active)
same,EC50,[10],> 79.4 µM (not active)
O=S(=O)(CCSc1ccccn1)c1nc2ccccc2s1,EC50,[1],6.03 µM (active)
same,AC50,[25],5.68 µM (active)
same,EC50,[26],9.21 µM (active)
same,EC50,[2],8.47 µM (active)
Cc1cc(NC(=O)CN2C(=O)NC3(CCC(C)CC3)C2=O)no1 (stereo unspecified),EC50,[8],> 79.4 µM (not active)
same,EC50,[9],> 79.4 µM (not active)
same,EC50,[10],> 79.4 µM (not active)
CCO[C@H]1OC(C(=O)NCc2nc3ccccc3[nH]2)=C[C@@H](c2ccc(C(F)(F)F)cc2)[C@@H]1CCCO,CC50,[11],> 40 µM (active)
CCOC(=O)Nc1c(O)ccc2oc(C)c(-c3ccccc3)c12,IC50,[7],17.3 µM (active)
